Test results from patent US10793543B2, “Selective C-KIT kinase inhibitor” (PRECEDO PHARMACEUTICALS CO., LTD, priority 2016, dated 2020).

Columns and labels:
[1] = test system: BaF3 cells; assay: Cell proliferation, CCK-8, parental BaF3; assay type: cell-based; details: Mus musculus, 72 hours
Description: (§1) In the present example, the following cells were used: chronic myelogenous leukemia cells K562 (expressing P210 Bcr-Abl mutant gene), human megakaryocytic leukemia cells MEG-01 (expressing P210 Bcr-Abl mutant gene), human peripheral blood basophilic leukemia cells Ku812 (expressing Bcr-Abl mutant gene) (all above cells purchased from ATCC, USA), human gastrointestinal stromal tumor cell lines GIST-T1 cells (expressing wild-type C-KIT gene) (purchased from Cosmo Bio Co., Ltd., Japan), human gastrointestinal stromal tumor cell lines GIST-882 cells (expressing wild-type C-KIT gene) (presented by the Professor Gray Lab, Dana-Farber Cancer Institute, Harvard University, USA), mouse pro-B cells BaF3 (purchased from ATCC, USA).
(§2) The cells were incubated for 72 hours, and then the number of viable cells was quantified with a microplate reader by using CCK-8 Cell Viability Assay Kit (purchased from Bestbio Company, Shanghai, China) (CCK-8 can be reduced by dehydrogenase in living cells to a highly water-soluble yellow formazan product, and the amount of formazan produced is proportional to the number of living cells).

[2] = test system: Tel-cKit/T670I-BaF3 cells (KIT T670I); assay: Cell proliferation, CCK-8, Tel-cKit/T670I-BaF3; assay type: cell-based; details: Mus musculus, 72 hours
Description: (§3) In addition, in the present example, further uses: mouse P210/BaF3 (stably expressing P210 Bcr-Abl mutant gene), mouse Tel-ABL-BaF3 (stably expressing wild-type ABL kinase), mouse Tel-cKit-BaF3 (stably expressing C-KITwild-type kinase), mouse Tel-cKit/V559D-BaF3 (stably expressing C-KIT V559D mutant kinase), mouse Tel-cKit/V559D/V654A-BaF3 (stably expressing C-KIT V559D/V654A mutant kinase), mouse Tel-cKit/N822K-BaF3 (stably expressing C-KIT N822K mutant kinase), mouse Tel-cKit/V654A-BaF3 (stably expressing C-KIT V654A mutant kinase), mouse Tel-cKit/L567P-BaF3 (stably expressing C-KIT L567P mutant kinase), mouse Tel-cKit/T670I-BaF3 (stably expressing C-KIT T670I mutant kinase), mouse Tel-PDGFRα-BaF3 (stably expressing PDGFRα kinase), mouse Tel-PDGFRβ-BaF3 (stably expressing PDGFRβ kinase), mouse Tel-VEGFR2-BaF3 (stably expressing VEGFR2 kinase), mouse Tel-RET-BaF3 (stably expressing RET kinase). The above cell lines were all constructed by our laboratory according to the following method: the kinase region sequences of human P210 Bcr-Abl, ABL, C-KIT, C-KIT V559D, C-KIT V559D/V654A, C-KIT N822K, C-KIT V654A, C-KIT L567P, C-KIT T670I, PDGFRα, PDGFRβ, VEGFR2, RET were amplified respectively by PCR, inserted respectively into MSCV-Puro vectors harboring N-terminal TEL fragment and/or NPM fragment and/or TPR fragment (Clontech), then the vectors were stably transfected into mouse BaF3 cells by retrovirus methods and growth factor IL-3 was removed, eventually obtaining cell lines that are transferred protein (P210 Bcr-Abl, ABL, C-KIT, C-KIT V559D, C-KIT V559D/V654A, C-KIT N822K, C-KIT V654A, C-KIT L567P, C-KIT T670I, PDGFRα, PDGFRβ, VEGFR2, RET)-dependent.
as §2

[3] = test system: Tel-cKit/V559D-BaF3 cells (KIT V559D); assay: Cell proliferation, CCK-8, Tel-cKit/V559D-BaF3; assay type: cell-based; details: Mus musculus, 72 hours
Description: as §3, §2

[4] = test system: Tel-cKit/V654A-BaF3 cells (KIT V654A); assay: Cell proliferation, CCK-8, Tel-cKit/V654A-BaF3; assay type: cell-based; details: Mus musculus, 72 hours
Description: as §3, §2

[5] = test system: Tel-PDGFRα-BaF3 cells (PDGFRα); assay: Cell proliferation, CCK-8, Tel-PDGFRα-BaF3; assay type: cell-based; details: Mus musculus, 72 hours
Description: as §3, §2

[6] = test system: Tel-PDGFRβ-BaF3 cells (PDGFRβ); assay: Cell proliferation, CCK-8, Tel-PDGFRβ-BaF3; assay type: cell-based; details: Mus musculus, 72 hours
Description: as §3, §2

[7] = test system: Tel-RET-BaF3 cells (RET WT); assay: Cell proliferation, CCK-8, Tel-RET-BaF3; assay type: cell-based; details: Mus musculus, 72 hours
Description: as §3, §2

[8] = test system: Tel-VEGFR2-BaF3 cells (VEGFR2); assay: Cell proliferation, CCK-8, Tel-VEGFR2-BaF3; assay type: cell-based; details: Mus musculus, Tel-VEGFR2-BaF3, VEGFR2, 72 hours
Description: as §3, §2

[9] = test system: cells expressing wild-type C-KIT kinase; assay: Cell proliferation, C-KIT cells; assay type: cell-based; details: cells expressing C-KIT kinase, summary of Table 2
Description: as §1, §3, §2

[10] = test system: Tel-cKit/N822K-BaF3 cells (KIT N822K); assay: Cell proliferation, CCK-8, Tel-cKit/N822K-BaF3; assay type: cell-based; details: Mus musculus, 72 hours
Description: as §3, §2

[11] = test system: GIST-T1 cells; assay: Cancer cell proliferation, CCK-8, GIST-T1; assay type: cell-based; details: Homo sapiens, GISTT1, GIST-T1, KIT WT, 72 hours
Description: as §1, §2

[12] = test system: gastrointestinal stromal tumor cell lines GIST-882; assay: Mouse tumor model of GIST-882 cells; assay type: in vivo; details: GIST-882 model, 100 mg/kg oral daily, Day 21 after administration
Method: (§4) 1. 4-6 week-old Bal b/c female mice were purchased from Shanghai SLAC Experimental Animal Co., Ltd., and were raised in a SPF-level laboratory. Drinking water and padding were both subjected to aseptic processing via high-pressure disinfection, and all operations of the mice were conducted under aseptic conditions;
(§5) 2. About 5×10^6 gastrointestinal stromal tumor cell lines GIST-T1 or GIST-882 (purchased from ATCC) were respectively injected subcutaneously at left side back of all mice at Day 0;
(§6) 5. Mice were sacrificed on Day 36 (for GIST-882 mouse model) or Day 43 (GIST-T1 mouse model) and subcutaneous tumors were taken out and weighed for comparison;
(§7) 6. Tumor tissue specimens were prepared into protein lysate samples for further usage;
(§8) 7. Growth trend of subcutaneous tumors from Day 16 to Day 43 was derived, and tumor volume was calculated as length×width×width/2 mm^3.

[13] = test system: Tel-cKit-BaF3 cells (KIT WT); assay: Cell proliferation, CCK-8, Tel-cKit-BaF3; assay type: cell-based; details: Mus musculus, 72 hours
Description: as §3, §2

[14] = test system: gastrointestinal stromal tumor cell lines GIST-T1; assay: Mouse tumor model of GIST-T1 cells; assay type: in vivo; details: 100 mg/kg oral daily, Day 28 after administration
Method: as §4, §5, §6, §7, §8

[15] = test system: Tel-cKit/L576P-BaF3 cells (KIT L576P); assay: Cell proliferation, CCK-8, Tel-cKit/L576P-BaF3; assay type: cell-based; details: Mus musculus, 72 hours
Description: as §3, §2

[16] = test system: GIST-882 cells; assay: Cancer cell proliferation, CCK-8, GIST-882; assay type: cell-based; details: Homo sapiens, GIST882, GIST-882, KIT WT, 72 hours
Description: as §1, §2

[17] = test system: Tel-cKit/V559D/V654A-BaF3 cells (KIT V559D/V654A); assay: Cell proliferation, CCK-8, Tel-cKit/V559D/V654A-BaF3; assay type: cell-based; details: Mus musculus, 72 hours
Description: as §3, §2

[18] = test system: K562 cells (P210 Bcr-Abl); assay: Cancer cell proliferation, CCK-8, K562; assay type: cell-based; details: Homo sapiens, K562, 72 h
Description: as §1, §2

[19] = test system: MEG-01 cells (P210 Bcr-Abl); assay: Cancer cell proliferation, CCK-8, MEG-01; assay type: cell-based; details: Homo sapiens, MEG-01, 72 h
Description: as §1, §2

[20] = test system: Ku812 cells (Bcr-Abl); assay: Cancer cell proliferation, CCK-8, Ku812; assay type: cell-based; details: Homo sapiens, KU812, 72 h
Description: as §1, §2

[21] = test system: Tel-ABL-BaF3 cells (ABL WT); assay: Cell proliferation, CCK-8, Tel-ABL-BaF3; assay type: cell-based; details: Mus musculus, 72 h
Description: (§9) In addition, in the present example, further uses: mouse P210/BaF3 (stably expressing P210 Bcr-Abl mutant gene), mouse Tel-ABL-BaF3 (stably expressing wild-type ABL kinase), mouse Tel-cKit-BaF3 (stably expressing C-KITwild-type kinase), mouse Tel-cKit/V559D-BaF3 (stably expressing C-KIT V559D mutant kinase), mouse Tel-cKit/V559D/V654A-BaF3 (stably expressing C-KIT V559D/V654A mutant kinase), mouse Tel-cKit/N822K-BaF3 (stably expressing C-KIT N822K mutant kinase), mouse Tel-cKit/V654A-BaF3 (stably expressing C-KIT V654A mutant kinase), mouse Tel-cKit/L567P-BaF3 (stably expressing C-KIT L567P mutant kinase), mouse Tel-cKit/T670I-BaF3 (stably expressing C-KIT T670I mutant kinase), mouse Tel-PDGFRα-BaF3 (stably expressing PDGFRα kinase), mouse Tel-PDGFRβ-BaF3 (stably expressing PDGFRβ kinase), mouse Tel-VEGFR2-BaF3 (stably expressing VEGFR2 kinase), mouse Tel-RET-BaF3 (stably expressing RET kinase). […]
as §2

[22] = test system: P210/BaF3 cells (P210 Bcr-Abl); assay: Cell proliferation, CCK-8, P210/BaF3; assay type: cell-based; details: Mus musculus, BaF3, 72 h
Description: as §9, §2

SMILES	GI50 [1]	GI50 [2]	GI50 [3]	GI50 [4]	GI50 [5]	GI50 [6]	GI50 [7]	GI50 [8]	GI50 [9]	GI50 [10]	GI50 [11]	GI50 [13]	GI50 [15]	GI50 [16]	GI50 [17]	further results
C=CC(=O)N1CCC(Oc2cc(NC(=O)c3ccc(CN4CCN(C)CC4)c(C(F)(F)F)c3)ccc2C)CC1 [Compound C]	> 10 µM	952 nM	36 nM	401 nM	36 nM	42 nM	490 nM	0.005 µM	< 500 nM	380 nM	30 nM	–	–	–	–	–
Cc1ccc(NC(=O)c2ccc(CN3CCN(C)CC3)cc2)cc1Nc1nccc(-c2cccnc2)n1 [imatinib]	> 10 µM	6670 nM	39 nM	2490 nM	–	–	6310 nM	> 10 µM	< 500 nM	1290 nM	8 nM	412 nM	102 nM	14 nM	3000 nM	tumor inhibition rate [12]: 49%; tumor inhibition rate [14]: 72.4%
Cc1cn(-c2cc(NC(=O)c3ccc(C)c(Nc4nccc(-c5cccnc5)n4)c3)cc(C(F)(F)F)c2)cn1 [nilotinib]	> 10 µM	2860 nM	22 nM	365 nM	32 nM	32 nM	2660 nM	5.38 µM	< 500 nM	166 nM	6 nM	47 nM	81 nM	17 nM	648 nM	GI50 [18]: 3 nM; GI50 [19]: 0.4 nM; GI50 [20]: 1.2 nM; GI50 [21]: 26 nM; GI50 [22]: 12.5 nM
